Values of other authors as cited in US20230129262A1, “METHODS AND PHARMACEUTICAL COMPOSITIONS OF THROMBOXANE A2 RECEPTOR ANTAGONIST FOR THE TREATMENT OF COVID-19” (priority 2020, published 2023).
Like-named read-outs stand apart in the source and are kept apart here.

Experiments:
TP receptor [1] = conditions: TP receptor blockade, several cited studies
TP receptors = biological target: T1, TP receptors (Rattus norvegicus, UniProt P34978); conditions: infusion of the TxA2 mimetic, preclinical studies (Bertolino, Valentin et al. 1995)
T1 sequence (P34978 1-341): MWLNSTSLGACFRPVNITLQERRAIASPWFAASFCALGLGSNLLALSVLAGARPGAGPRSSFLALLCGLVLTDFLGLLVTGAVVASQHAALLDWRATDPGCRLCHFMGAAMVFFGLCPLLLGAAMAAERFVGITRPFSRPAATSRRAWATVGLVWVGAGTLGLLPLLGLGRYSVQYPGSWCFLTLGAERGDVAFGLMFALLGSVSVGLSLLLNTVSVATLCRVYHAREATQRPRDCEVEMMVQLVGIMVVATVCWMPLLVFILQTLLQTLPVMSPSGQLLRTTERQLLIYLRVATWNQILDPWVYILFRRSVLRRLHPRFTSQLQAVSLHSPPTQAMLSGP

platelet activation = conditions: Tarantino, Amadio et al. 2016
TP receptor [2] = biological target: T2, TP receptor (Mus musculus, UniProt P30987); conditions: bleomycin model of pulmonary fibrosis (Suzuki, Kropski et al. 2021)
T2 sequence (P30987 1-341): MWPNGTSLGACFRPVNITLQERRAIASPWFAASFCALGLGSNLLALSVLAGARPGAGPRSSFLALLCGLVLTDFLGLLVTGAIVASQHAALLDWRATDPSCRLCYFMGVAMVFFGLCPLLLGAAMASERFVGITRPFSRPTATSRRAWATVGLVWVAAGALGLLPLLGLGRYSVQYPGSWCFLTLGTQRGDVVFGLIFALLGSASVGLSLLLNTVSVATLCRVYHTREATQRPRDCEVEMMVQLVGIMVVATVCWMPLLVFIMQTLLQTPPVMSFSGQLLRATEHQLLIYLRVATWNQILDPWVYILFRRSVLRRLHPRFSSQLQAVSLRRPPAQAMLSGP

TP receptor [3] = biological target: T2, TP receptor; conditions: pressure-overload model of pulmonary arterial hypertension (West, Voss et al. 2016)
TP receptor [4] = biological target: T2, TP receptor; conditions: model of Duchenne muscular dystrophy (West, Galindo et al. 2019)
TP receptor [5] = system: TP receptor
TP receptor [6] = biological target: T3, TP receptor (Homo sapiens, UniProt P21731); conditions: patients with acute lung injury; by selectively relaxing pulmonary veins and decreasing post-capillary resistance (Schuster, Kozlowski et al. 2001)
T3 sequence (P21731 1-343): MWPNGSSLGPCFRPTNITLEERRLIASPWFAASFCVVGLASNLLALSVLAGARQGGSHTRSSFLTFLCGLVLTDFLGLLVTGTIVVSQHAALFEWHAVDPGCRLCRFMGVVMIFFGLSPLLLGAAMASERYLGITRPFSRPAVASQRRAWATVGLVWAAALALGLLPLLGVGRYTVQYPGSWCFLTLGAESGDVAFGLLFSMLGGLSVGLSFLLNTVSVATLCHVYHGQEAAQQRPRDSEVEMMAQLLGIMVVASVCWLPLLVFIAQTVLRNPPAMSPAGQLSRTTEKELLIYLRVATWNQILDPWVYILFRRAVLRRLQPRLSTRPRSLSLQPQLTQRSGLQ

TP receptor [7] = biological target: T2, TP receptor; conditions: chronic hypoxia in mice, potentiated in COX-2 knock-out mice (Cathcart, Tamosiuniene et al. 2008)

Structure (SMILES): C[C@H](c1ccccc1)[C@@H](O)/C=C/[C@@H]1[C@H](C/C=C\CCCC(=O)O)[C@H]2CC[C@@H]1O2 [SQ28668]
- lung injury-associated pulmonary hypertension, hypoxemia, and pulmonary edema (TP receptor [1]): inhibited

Structure (SMILES): CCCCCCC(=O)NCC(=O)NC[C@H]1[C@@H](C/C=C\CCCC(=O)O)[C@@H]2CC[C@H]1O2 [SQ30741]
- lung injury-associated pulmonary hypertension, hypoxemia, and pulmonary edema (TP receptor [1]): inhibited

Structure (SMILES): CCCCC[C@H](O)/C=C/[C@@H]1[C@@H](C/C=C\CCCC(=O)O)[C@H]2CO[C@@H]1C2 [U-16,619, 9,11-dideoxy-9α, 11α-methanoepoxy prostaglandin F2α]
- plasma fluid and protein accumulation in the lung (TP receptors): strongly increased

Structure (SMILES): CC(=O)Oc1ccccc1C(=O)O [aspirin, acetylsalicylic acid]
- platelet activation in venous thrombosis (platelet activation): prevents
- mortality (high-dose aspirin (1,000 mg/day), compared to propensity score matched COVID-19 controls (Liu, Huang et al. 2021)): reduced
- risk of mechanical ventilation, ICU admission, and in-hospital mortality (low-dose aspirin use, hospitalized COVID-19 patients (Chow, Khanna et al. 2021)): decreased risk

Structure (SMILES): CCCCCNC(=O)c1coc([C@H]2[C@@H](Cc3ccccc3CCC(=O)O)[C@@H]3CC[C@H]2O3)n1 [ifetroban, 3-[2-[[(1S,2R,3S,4R)-3-[4-(pentylcarbamoyl)-1,3-oxazol-2-yl]-7-oxabicyclo[2.2.1]heptan-2-yl]methyl]phenyl]propanoic acid]
- development of fibrosis (TP receptor [2]): blocked
- cardiac function (TP receptor [3]): improves
- right ventricular fibrosis (TP receptor [3]): dramatically decreases
- cardiac function (TP receptor [4]): improves
- right ventricular fibrosis (TP receptor [4]): dramatically decreases
- lung injury-associated pulmonary hypertension, hypoxemia, and pulmonary edema (TP receptor [1]): inhibited
- arterial and tissue oxygenation (TP receptor [5]; compared with septic controls (Quinn and Slotman 1999)): significantly increased
- systemic and pulmonary vasoconstriction (TP receptor [5]; sepsis animal model (Quinn and Slotman 1999)): ameliorated
- pulmonary capillary pressure (TP receptor [6]): reduced
- pulmonary hypertension and pulmonary intravascular thrombosis (TP receptor [7]): prevented
